Assay results published in ChEMBL document CHEMBL4476871, “SULFAMIDE AND SULFAMATE INHIBITORS OF hHint1” (2018).
The source made the active and inactive calls. No cut-off for these calls is given here.

Legend:
[1] = target: Adenosine 5'-monophosphoramidase HINT1 (Homo sapiens) (UniProt P49773); test: Inhibition of human N-terminal His6-tagged Hint1 expressed in Escherichia coli Rosetta 2 pLysS cells by fluorescence assay
Mus musculus [2] = test: Analgesic activity in ICR mouse model of spared nerve injury assessed as reduction in mechanical hypersensitivity at 1 nmol administered intrathecally prior to spared nerve injury by Von Frey test; assay type: functional, organism-based
Mus musculus [3] = test: Analgesic activity in ICR mouse model of spared nerve injury assessed as reduction in mechanical hypersensitivity at 1 nmol administered intrathecally 7 days post spared nerve injury by Von Frey test; assay type: functional, organism-based
Mus musculus [4] = test: Analgesic activity in ICR mouse model of spared nerve injury assessed as reduction in mechanical hypersensitivity at 1 nmol administered intrathecally 7 days post spared nerve injury measured after 4 hrs by Von Frey test; assay type: functional, organism-based

Chain of Adenosine 5'-monophosphoramidase HINT1 (Homo sapiens) (P49773 whole entry): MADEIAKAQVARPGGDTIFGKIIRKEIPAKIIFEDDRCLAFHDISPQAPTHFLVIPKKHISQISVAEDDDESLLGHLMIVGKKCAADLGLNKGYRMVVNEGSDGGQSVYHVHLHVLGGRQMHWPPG

**Q.** Which results are given for `Nc1nc2c(ncn2[C@@H]2O[C@H](COC(=O)NCCc3c[nH]c4ccccc34)[C@@H](O)[C@H]2O)c(=O)[nH]1`?
**A.** inhibition [1]: Dose-dependent effect; Activity (Mus musculus [2]): Active; Activity (Mus musculus [3]): Active

**Q.** Which Activity (Mus musculus [2]) does the source give for `O=C(CCc1c[nH]c2ccccc12)NS(=O)(=O)OC[C@H]1O[C@@H](n2cnc3c2ncn2ccnc32)[C@@H](O)C1O` (stereo partly specified) here?
**A.** inactive

**Q.** And the Activity (Mus musculus [4])?
**A.** Active

**Q.** For `Nc1ncnc2c1ncn2[C@@H]1O[C@H](CNS(=O)(=O)NC(=O)CCCC[C@@H]2SC[C@@H]3NC(=O)N[C@@H]32)[C@@H](O)[C@H]1O`, which inhibition [1] is on record?
**A.** Dose-dependent effect
